# Data from US20250042969A1, “ANTIGEN DISCOVERY FOR T CELL RECEPTORS ISOLATED FROM PATIENT TUMORS RECOGNIZING WILD-TYPE ANTIGENS AND POTENT PEPTIDE MIMOTOPES” (The Board of Trustees of the Leland Stanford Junior …, priority 2017, published 2025).
# No end group written: not given here.
# Tests used:
# TCR 4B = test: CD69 activation of SKW-3 T cells expressing TCR 4B co-cultured with peptide-pulsed T2 cells; details: T2 cells pulsed with 100 μM peptide 3 hours, co-incubated 18 hours, flow cytometry
# Source text: Measuring T cell activation in co-culture assays. The four TCRs identified from the colorectal cancer patients that selected peptides from the library were cloned into a MSCV-based vector pMIG II in α-P2A-β configuration using the wildtype signal peptides of the TCR variable genes and full length, unmodified constant regions. The P2A skip sequence allows for 1:1 stoichiometric expression of the TCRs. A MSCV-based vector pMIG II was also used to generate human CD3 in the format of δ-F2A-γ-T2A-ε-P2A-ζ. A packaging vector pCL10A was used to incorporate env, gag, and pol to allow for human mammalian tropism and viral generation. The vectors introduced puromycin and zeocin selectivity into infected cells. […] The viruses were generated using X-tremeGENE 9 DNA transfection reagent (Sigma-Aldrich) in serum-free DMEM. In cell culture, 2% FBS DMEM was used to recover the cells and media was changed at 12 hours. […] The 2 mL virus of TCR and 2 mL virus of human CD3 was used to co-infect 2×10^6 SKW-3 cells with 5 ug/mL polybrene (Millipore) by spinning for 2 hrs at 2500 rpm at 32° C. The virus was removed and replaced with media and cells cultured. The transduced SKW-3 cells were cultured after 2-3 days in 20 ug zeocin and 1 ug puromycin indefinitely to select for TCR and human CD3 co-expression. Cells were then co-stained for TCR (IP26, BioLegend) and human CD3 (UCHT1, BioLegend) and sorted on the SH800 cell sorter (Sony Biotechnology Inc.).
# The transduced SKW-3 cells were co-cultured with TAP-deficient T2 cells in a 2:1 ratio with various peptide dilutions. The top 5 synthetic peptides isolated from the yeast-display selections were tested along with predictions determined from the 3 prediction algorithms. Peptides were synthesized to >70% purity (Genscript) (Elim Biopharm) and resuspended in dimethylsulfoxide to 20 mM and stored at −20° C. CD69 (FN50, BioLegend) was measured at 18 hours to detect early T cell activation by flow cytometry using the Accuri C6 (BD Biosciences). SKW-3 T cells were detected by UCHT1 staining and checked for TCR and CD3 expression. T2 cells were checked for HLA-A*02 expression by antibody (BB7.2, BioLegend). Data was analyzed using FlowJo version 10 (FlowJo, LLC) and samples were gated on SKW-3 cells by forward and side scatter and UCHT1+ cells followed by analysis for CD69 expression. Experiments were done in biological triplicate and technical triplicate. P-values were calculated by ordinary one-way ANOVA in Prism and experiments plotted with either standard deviation or standard error of the mean as indicated.
# T-cell stimulation assays using SKW-3 cells. Data is analyzed using Flowjo to gate SKW-3 cells and CD3^+ group to identify T cells. T cells are then gated on CD69 expression using the negative control (no peptide). The median MFI expression of CD69 in the CD3^+ group and the percentage of cells expressing CD69 have been analyzed. One-way ordinary ANOVA was determined for both analyses using Prism in comparison to the negative control (no peptide). The 100 μM peptide stimulation is completed in biological and technical triplicate. Only one of the biological triplicates is shown. The peptide titration experiments were done in biological triplicate. All biological triplicates were analyzed collectively.
# TCR 2A [1] = test: TCR 2A tetramer staining of yeast expressing single-chain peptide-HLA-A*02:01; assay type: binding, human; details: 400 nM TCR tetramer
# Experimental: (§1) Individual yeast clones isolated from the selections or competent yeast electroporated with reconstructed peptide-HLA constructs identified from the deep sequencing were stained with 400 nM TCR tetramer labeled with SA-647 or SA-647 alone in combination with anti-epitope tag.
# Target sequence in this assay (as listed by the source): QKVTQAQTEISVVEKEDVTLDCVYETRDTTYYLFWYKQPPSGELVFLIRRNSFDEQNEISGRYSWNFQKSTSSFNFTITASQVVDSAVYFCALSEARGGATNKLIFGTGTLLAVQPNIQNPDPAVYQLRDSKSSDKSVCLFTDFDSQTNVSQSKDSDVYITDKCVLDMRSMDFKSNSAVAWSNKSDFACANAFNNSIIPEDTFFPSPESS
# Target sequence in this assay (as listed by the source): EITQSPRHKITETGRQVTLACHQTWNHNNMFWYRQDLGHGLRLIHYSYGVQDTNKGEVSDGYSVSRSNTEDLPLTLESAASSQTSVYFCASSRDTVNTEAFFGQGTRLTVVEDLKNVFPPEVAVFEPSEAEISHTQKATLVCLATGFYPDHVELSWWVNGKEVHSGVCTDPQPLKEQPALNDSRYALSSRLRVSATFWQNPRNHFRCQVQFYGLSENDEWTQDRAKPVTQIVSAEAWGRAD
# TCR 3B [2] = test: TCR 3B tetramer staining of yeast expressing single-chain peptide-HLA-A*02:01; assay type: binding, human; details: 400 nM TCR tetramer
# Experimental: as §1
# Target sequence in this assay (as listed by the source): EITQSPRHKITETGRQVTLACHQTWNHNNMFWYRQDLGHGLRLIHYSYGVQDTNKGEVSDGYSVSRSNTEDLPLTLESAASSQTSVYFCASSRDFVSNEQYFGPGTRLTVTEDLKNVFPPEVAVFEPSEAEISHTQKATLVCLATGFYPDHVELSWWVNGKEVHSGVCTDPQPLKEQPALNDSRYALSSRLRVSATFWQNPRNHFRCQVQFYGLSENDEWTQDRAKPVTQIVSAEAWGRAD
# [3] = tested on: SKW-3 cells expressing TCR2A; test: pHLA tetramer staining of SKW-3 cells expressing TCR2A; assay type: binding, human
# [4] = tested on: SKW-3 cells expressing TCR 3B; test: pHLA tetramer staining of SKW-3 cells expressing TCR 3B; assay type: binding, human
# TCR 2A [5] = test: CD69 activation of SKW-3 T cells expressing TCR 2A co-cultured with peptide-pulsed T2 cells; details: T2 cells pulsed with 100 μM peptide 3 hours, co-incubated 18 hours, flow cytometry
# Target sequence in this assay (as listed by the source): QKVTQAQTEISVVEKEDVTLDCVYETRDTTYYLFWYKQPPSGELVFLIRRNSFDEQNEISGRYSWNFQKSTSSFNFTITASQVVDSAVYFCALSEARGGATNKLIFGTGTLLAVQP
# Target sequence in this assay (P61769 21-119): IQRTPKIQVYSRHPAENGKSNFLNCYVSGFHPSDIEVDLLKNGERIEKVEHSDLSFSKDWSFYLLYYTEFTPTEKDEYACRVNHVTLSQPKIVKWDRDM
# Target sequence in this assay (as listed by the source): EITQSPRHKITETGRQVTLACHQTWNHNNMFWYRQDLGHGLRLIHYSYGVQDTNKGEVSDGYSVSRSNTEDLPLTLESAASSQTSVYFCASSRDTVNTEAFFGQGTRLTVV
# Source text: (§2) Measuring T cell activation in co-culture assays. The four TCRs identified from the colorectal cancer patients that selected peptides from the library were cloned into a MSCV-based vector pMIG II in α-P2A-β configuration using the wildtype signal peptides of the TCR variable genes and full length, unmodified constant regions. The P2A skip sequence allows for 1:1 stoichiometric expression of the TCRs. A MSCV-based vector pMIG II was also used to generate human CD3 in the format of δ-F2A-γ-T2A-ε-P2A-ζ. A packaging vector pCL10A was used to incorporate env, gag, and pol to allow for human mammalian tropism and viral generation. […]
# (§3) The transduced SKW-3 cells were co-cultured with TAP-deficient T2 cells in a 2:1 ratio with various peptide dilutions. The top 5 synthetic peptides isolated from the yeast-display selections were tested along with predictions determined from the 3 prediction algorithms. […] CD69 (FN50, BioLegend) was measured at 18 hours to detect early T cell activation by flow cytometry using the Accuri C6 (BD Biosciences). SKW-3 T cells were detected by UCHT1 staining and checked for TCR and CD3 expression. […] Data was analyzed using FlowJo version 10 (FlowJo, LLC) and samples were gated on SKW-3 cells by forward and side scatter and UCHT1+ cells followed by analysis for CD69 expression. […]
# (§4) T-cell stimulation assays using SKW-3 cells. […] All biological triplicates were analyzed collectively.
# TCR 3B [6] = test: CD69 activation of SKW-3 T cells expressing TCR 3B co-cultured with peptide-pulsed T2 cells; details: T2 cells pulsed with 100 μM peptide 3 hours, co-incubated 18 hours, flow cytometry
# Target sequence in this assay (as listed by the source): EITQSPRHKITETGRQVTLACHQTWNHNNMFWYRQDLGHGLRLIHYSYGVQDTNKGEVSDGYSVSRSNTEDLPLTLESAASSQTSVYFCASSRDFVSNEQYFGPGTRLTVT
# Target sequence in this assay (P61769 21-119): as the sequence (P61769 21-119) above
# Source text: as §2, §3, §4
# NKI2 = test: IFNγ production by NKI2-transduced peripheral blood lymphocytes with peptide-pulsed JY cells; assay type: cell-based, human; details: 1:1 with peptide-pulsed JY cells, 5-hour incubation, intracellular staining
# Experimental: CDK4-specific TCRs clone 10 (NKI1) and 17 (NKI2) were derived from TILs of a melanoma patient that were screened with HLA multimers loaded with predicted neoantigens, essentially as described. The variable parts of both TCRs were cloned into a retroviral vector encoding the murine TCR α and β constant domains. FLYRD18 packaging cells were plated in 10 cm dishes at 1.2×10^6 cells/well. After one day, cells were transfected with 10 μg retroviral vector DNA encoding the CDK4 TCRs using 25 μl X-tremeGENE HP DNA (Sigma-Aldrich). After 48 hrs, retroviral supernatant was isolated and transferred to retronectin-coated 24-well plates and centrifuged for 90 minutes at 430 g. PBMCs were activated and selected with anti-CD3/CD28 beads (ThermoFisher) at a bead-to-cell ratio of 3:1. Forty-eight hours after stimulation, T cells were plated at 0.5×10^6 cells/mL on virus-coated plates. Surface expression of the introduced CDK4 TCRs on transduced T cells was measured using APC labeled CDK4 R>L HLA-A*02:01 tetramers in combination with anti-murine VB TCR-PE labeled antibody (BD Biosciences). Cells were analyzed using a FACSCalibur (Becton Dickinson). JY cells were pulsed with the CDK4 peptide or the predicted peptides at the indicated concentrations for 1 hr at 37° C. and then washed two times. […]
substance,measurement,setting,value
TLEELDWCL,CD69 activation of TCR 4B T cell line,TCR 4B,stimulated
NVEYYDIKL,CD69 activation of TCR 4B T cell line,TCR 4B,stimulated
NMEYMTWDV,CD69 activation of TCR 4B T cell line,TCR 4B,stimulated
"MMDFFNAQM-HLA-A*02:01: U2AF2 peptide MMDFFNAQM in complex with HLA-A*02:01, as yeast single-chain trimer or refolded tetramer (not fully specified (C-terminus); also: in complex with HLA-A*02:01 (single-chain trimer or refolded tetramer))",TCR 2A tetramer staining of yeast,TCR 2A [1],lack of TCR tetramer staining
same,TCR 3B tetramer staining of yeast,TCR 3B [2],lack of TCR tetramer staining
same,pHLA tetramer staining of SKW-3 cells expressing TCR2A,[3],failed to stain
same,pHLA tetramer staining of SKW-3 cells expressing TCR 3B,[4],failed to stain
LLEDLDWDV,CD69 activation of TCR 4B T cell line,TCR 4B,stimulated
TMETIDWKV,CD69 activation of TCR 4B T cell line,TCR 4B,stimulated
MMDFFNAQM,CD69 activation of TCR 2A T cell line,TCR 2A [5],found to stimulate T cells
same,CD69 activation of TCR 3B T cell line,TCR 3B [6],found to stimulate T cells
VLEEVDWLI,CD69 activation of TCR 4B T cell line,TCR 4B,stimulated
KLEQLDWTV,CD69 activation of TCR 4B T cell line,TCR 4B,stimulated
ALDSRSEHFM [top peptide mimotope selected by NKI2],IFNγ production by NKI2 transduced T cells,NKI2,stimulated these cells as potently as the CDK4 neoantigen
VLDFQGQL,CD69 activation of TCR 2A T cell line,TCR 2A [5],able to stimulate the receptor
